Columns and labels:
[1] = system: human isolated bronchial tissues pre-contracted with acetylcholine; assay: Relaxation of human isolated bronchi pre-contracted with acetylcholine (EC70), drugs alone and in combination, synergy analysis; conditions: n=5; for slope (nH): 4 parameter logistic fit
Description: Bronchial rings were mounted on hooks in the organ baths where one hook was attached with threaded to a stationary rod and the other hook tied with thread to an isometric force displacement transducer. […] Tallarida, 2001; Goldoni and Johansson, 2007; Boik et al., 2008; Lee, 2010). […] Goodman et al., 2008). E/Emax was expressed as percentage of Emax elicited by the contractile agents; […] The analysis of the potential synergism between RPL554 plus a β2-adrenergic receptor agonist was measured by applying the Berenbaum method, the Bliss Independence (BI) criterion and the Loewe Additivity (LA) model through curved isoboles (Berenbaum, 1977; Greco et al., 1995; Grabovsky and Tallarida, 2004; Tallarida, 2006; Goldoni and Johansson, 2007; Tallarida and Raffa, 2010). […] Lee, 2010). The BI theory for two agents is expressed by the following equation: E(x,y)=Ex+Ey-(Ex*Ey), where E is the fractional effect, and x and y are the concentrations of two compounds in a combination experiment. If the combination effect is higher than the expected value from the above equation, the interaction is considered synergistic, while if this effect is lower, the interaction is antagonistic. […] In this study, the BI equation was characterized by X=RPL554 and Y=β2-adrenergic receptor agonist. […] Using the concept of dose equivalence, the relationship a/A+b/B=1 was reformulated as b+beq (a)=B, where beq is the dose equivalent of a and solving for beq(a) by equating the two individual concentration response curves EA=f(A) and EB=f(B). The additive response (Eab) for each dose combination with respect to B was then calculated by insertion of B into EB=f(B). The difference between the observed relaxation response to the combination doses and the additive response was calculated and analysed using a one sample t-test and for multiple comparisons, the probability was adjusted for multiple comparisons using a Bonferroni correction. For illustrative purposes, the 1:1 dose combinations were analysed for synergy. […] Then, concentration response curves were constructed to test individual compound RPL554, or salbutamol alone; or RPL554 administered in combination with salbutamol in order to produce isobolar graphs (salbutamol:RPL554 and ranging from 10:1 to 1:100) as described elsewhere (Greco et al., 1995; Tallarida, 2001; Goldoni and Johansson, 2007; Boik et al., 2008; Lee, 2010).

[2] = system: human isolated bronchial preparations; assay: Inhibition of EFS-induced contraction of human isolated bronchi; conditions: after termination of drug exposure
Description: Regions of macroscopically normal lungs were taken from uninvolved areas resected from 24 subjects (11 male and 13 female, 60.1±1.6 years old) undergoing lobectomy surgery for lung cancer, but without a history of chronic airway disease.
Airways were immediately placed into oxygenated Krebs-Henseleit buffer solution (KH) (mM: NaCl 119.0, KCl 5.4, CaCl2 2.5, KH2PO41.2, MgSO4 1.2, NaHCO3 25.0, glucose 11.7; pH 7.4) containing the cyclooxygenase (COX) inhibitor indomethacin (5.0 μM), and transported at 4° C. from the “Regina Elena National Cancer Institute” or the “Sant'Andrea Hospital” to the Respiratory Research Laboratory in the Surgery and Medicine Faculty of “Tor Vergata University”, Rome, Italy. None of the subjects were chronically treated with theophylline, β2-agonists or glucocorticosteroids. Serum IgE levels determined on the day of surgery were in the normal range. […]
Human bronchi were placed in organ baths containing KH buffer solution (37° C.) medicated with indomethacin (5.0 μM), bubbled with 95% O2/5% CO2 and suspended under passive tension (0.5-1.0 g). […] Changes in isometric tension were measured with a transducer (Fort 10 WPI, Basile, Instruments, Italy) and the tissue responsiveness was assessed by acetylcholine (100 μM); when the response reached a plateau, rings were washed three times and allowed to equilibrate for 45 min. […]

[3] = system: passively sensitized human isolated bronchi; assay: Contraction induced by histamine in passively sensitized human bronchi; conditions: RPL554 100 μM
Description: Human isolated bronchial rings were rotated overnight at room temperature in tubes containing KH buffer solution in the absence (non-sensitized control rings) or the presence of 10% vol^−1 sensitizing serum (sensitized rings) as described elsewhere (Watson et al., 1997; Rabe, 1998). Subjects suffering from atopic asthma (total IgE>250 U^−1 specific against common aeroallergens) during exacerbation provided signed consent for serum donation.
Sera was prepared by centrifugation of whole blood and sera samples were frozen at −80° C. in 200 ml aliquots until required.
The next morning, after removal of adhering alveolar and connective tissues, bronchial rings were transferred into an organ bath containing KH buffer (37° C.) and continuously gassed with a 95% O2/5% CO2. Tissues were pre-incubated for 30 min with RPL554 (1, 10 and 100 μM) and then followed (without washing) by the construction of concentration responses curve to histamine (10 nM-1 mM) in the presence of RPL554.
Appropriate curve-fitting to a sigmoidal model was used to calculate the effect (E), the Emax and the concentration required to cause a 50% maximal effect (EC50). The equation used was log [agonist] vs. response, Variable slope, expressed as Y=Bottom+(Top−Bottom)/{1+10^[(Log EC50−X)*HillSlope]} (Motulsky and Christopoulos, 2004; Goodman et al., 2008). […]

anaesthetized rats = assay: Cardiovascular interaction (safety) study, blood pressure and heart rate, i.v. bolus; type: in vivo, rat
Source text: This study was undertaken to determine whether RPL554 has cardiovascular interactions with a β2-adrenergic receptor agonist (salbutamol). A muscarinic receptor antagonist (atropine) was included for completeness. RPL554 is a dual PDE3/PDE4 inhibitor being developed for treatment of chronic obstructive pulmonary disease (COPD) and asthma as an inhaled bronchodilator with possible anti-inflammatory actions. […] The study design was blind and random with drugs given as pairs five minutes apart in an alternating manner, e.g., RPL554 followed by salbutamol and vice versa. […] Instead they were chosen to test for possible interactions under supra therapeutic conditions.
Doses producing a 15-30 mmHg increase in mean blood pressure (MBP) and 30-60 beats per minute increase in heart rate (HR) were chosen from an initial dose-response study for RPL554 and salbutamol. […] Thereafter, the chosen doses were examined in pairs administered 5 minutes part. […] The intention of the study was to use supra normal conditions in order to challenge for possible interactions under supra therapeutic conditions.
The studies were performed on Sprague-Dawley male rats from Charles River weighing 200-250 grms. […] For the purposes of the experiment the animals were anaesthetized with thiobutabarbital at a dose of 100 mg/kg given by the i.p. route. There was no necessity for supplemental anaesthesia and at the end of the experimental period each rat was sacrificed. The study had two parts: (I) an initial dose ranging study and (II) the interaction study. The drugs studied were: RPL554 (R), salbutamol (S), atropine (A) all dissolved in saline.
An initial dose-ranging study was performed as follows: cumulative dose-response curves for intravenous bolus doses of the three drugs were performed to determine appropriate doses of each of the three drugs for the full study. Doses of RPL554 or salbutamol producing a 15-30 mmHg increase in mean blood pressure (MBP) and 30-60 beats per minute increase in heart rate (HR) were chosen from this initial dose-response study. […] This dose-ranging study involved four rats in which cumulative doses of each of the 3 drugs were given on a dose-doubling basis. Doses of each of the drugs were given as i.v. bolus injections every 5 minutes with 1 hour between different drugs. The order of injections were: for animal 1—S, R, A; animal 2—R, A, S; animal 3—A, S, R and animal 4—R, A, S. As indicated above the doses and routes of injection where chosen as supernormal and above doses producing effects when given by inhalation.
In this study all drugs were given as a single dose by i.v. bolus injection, via a jugular vein cannula, and at a volume of 1 mL/kg. The study design was blind and random with three lines each containing four animals for a total of 12 animals.
Pairs of drugs were given to individual animals on a randomized blind basis using a line by line design where each line contained four rats with injections as follows: R1S2, S1R2, R1A2 and A1R2 (in random order where 1 indicates the first drug given and 2 indicates the second drug given 5 minutes after the first drug). A total of 3 lines were studied thus a total of 12 rats were used and none of the animals had to be replaced.

Guinea pigs = assay: Reduction in mean arterial blood pressure after iv. administration; type: in vivo, guinea pig; conditions: 20 μg/kg RPL554 iv., control (alone)
Description: (§1) Guinea pigs were anaesthetized and ventilated. Airway obstruction was induced by the intravenous administration of bombesin (2 μg/ml; 5 ml/hr). Bronchodilation was induced by the iv. administration of RPL554 alone at various doses, or in combination with sub maximal dose of salbutamol (20 μg/kg). Doses were selected following studies generating a dose-response curve for both salbutamol to select a dose resulting in approximately 20% reduction in airways obstruction. Total lung resistance (RL) and mean arterial blood pressure were measured. Data are expressed as % reduction in airways obstruction or blood pressure.

guinea pig airways = assay: Reversal of bombesin-induced airways obstruction (total lung resistance); type: in vivo; conditions: salbutamol 20 μg/kg alone
Description: as §1

## COc1cc2c(cc1OC)-c1cc(=Nc3c(C)cc(C)cc3C)n(CCNC(N)=O)c(=O)n1CC2 [RPL554, 9,10-Dimethoxy-2-(2,4,6-trimethylphenylimino)-3-(N-carbamoyl-2-aminoethyl)-3,4,6,7-tetrahydro-2H-pyrimido[6,1-a]isoquinolin-4-one]
[1]; mean±SD
  slope (nH): 2.271±0.713
[2]
  Duration of inhibition of EFS contractile response after exposure to drug: at least 5 h
[3]
  Effect on contraction induced by histamine: completely abolished the contraction induced by histamine
Anaesthetized rats
  Time to peak response, blood pressure: 60 to 80 s
  Time to peak response, heart rate: 2 to 4.5 min
Guinea pigs
  reduction in mean arterial blood pressure: 37.3±6.7%

## CN1[C@@H]2CC[C@H]1C[C@@H](OC(=O)C(CO)c1ccccc1)C2 (some centres unmarked) [atropine]
Anaesthetized rats
  Time to peak response, blood pressure: 240 s
  Time to peak response, heart rate: 4 min

## CC(C)(C)NCC(O)c1ccc(O)c(CO)c1 (centres unmarked) [salbutamol]
Guinea pig airways
  reduction in airways obstruction: 34.2±11.1%
[1]; Homo sapiens, geomean (95% CI), acetylcholine EC70, read-out: potency (EC50), relaxation
  EC50: 283 nM
[1]; Homo sapiens, mean±SD, acetylcholine EC70, percentage of papaverine (500 μM) induced relaxation
  Emax: 78 ± 11%
[1]; mean±SD
  slope (nH): 1.572±0.482
Anaesthetized rats
  Time to peak response, blood pressure: approximately 20 seconds
  Time to peak response, heart rate: ~1 min

Reference: patent publication US9717732B2, “Drug combination” (VERONA PHARMA PLC, priority 2013, dated 2017)
